Results on 19 compounds are retold here after PMC3643815 (Combinatorial chemistry & high throughput screening, 2011).

The subject of series [1] is ADP processing (ATP depletion, ATP regeneration, luciferase reaction). Put plainly: Dose response in the ADP processing step of the LUM method. Format: biochemical.
For series [2], the system named is luminescence detection (luciferase luminescence signal). Put plainly: Dose response in the luminescence detection step of the LUM method.
For series [3], the target named is T1, human Cdc7-Dbf4 kinase (Cdc7-Dbf4 heterodimer) (Homo sapiens, UniProt O00311). Put plainly: Cdc7-Dbf4 kinase assay with the LUM method. Format: biochemical. Conditions: for ADP production IC50: LUM method, 12.5 μM ATP, up to 77 μM compound, duplicate, N.E. = no effect.
A short description of series [4]: Solubility by laser nephelometry. The note with it: dilutions up to 77 μM.
Series [5] addresses T1, human Cdc7-Dbf4 kinase (Cdc7-Dbf4 heterodimer). Put plainly: Cdc7-Dbf4 kinase assay with the SPA method. Type of series: biochemical. The note with it: 45 mM EDTA in 1% DMSO, 25 μM [γ-33P]-ATP.

Counter-ions that a name gives are not always drawn. Like-named read-outs stand apart in the source and are kept apart here.

T1 sequence (O00311 whole entry): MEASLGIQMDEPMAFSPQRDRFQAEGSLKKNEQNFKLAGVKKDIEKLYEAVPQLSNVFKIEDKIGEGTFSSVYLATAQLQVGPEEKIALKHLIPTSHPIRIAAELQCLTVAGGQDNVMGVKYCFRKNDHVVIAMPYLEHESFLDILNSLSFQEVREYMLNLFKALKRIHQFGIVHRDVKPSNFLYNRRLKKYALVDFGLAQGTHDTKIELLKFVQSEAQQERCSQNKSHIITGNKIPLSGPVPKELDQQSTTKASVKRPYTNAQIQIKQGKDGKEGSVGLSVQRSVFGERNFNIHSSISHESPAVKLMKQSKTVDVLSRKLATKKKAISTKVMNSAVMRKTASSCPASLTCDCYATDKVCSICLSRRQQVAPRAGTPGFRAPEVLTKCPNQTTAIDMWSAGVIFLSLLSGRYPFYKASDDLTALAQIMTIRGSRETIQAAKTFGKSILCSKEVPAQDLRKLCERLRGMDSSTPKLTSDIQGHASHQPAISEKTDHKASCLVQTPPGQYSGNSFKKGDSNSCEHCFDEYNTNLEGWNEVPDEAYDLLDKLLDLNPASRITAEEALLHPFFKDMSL
T1 sequence (Q9UBU7 whole entry partner): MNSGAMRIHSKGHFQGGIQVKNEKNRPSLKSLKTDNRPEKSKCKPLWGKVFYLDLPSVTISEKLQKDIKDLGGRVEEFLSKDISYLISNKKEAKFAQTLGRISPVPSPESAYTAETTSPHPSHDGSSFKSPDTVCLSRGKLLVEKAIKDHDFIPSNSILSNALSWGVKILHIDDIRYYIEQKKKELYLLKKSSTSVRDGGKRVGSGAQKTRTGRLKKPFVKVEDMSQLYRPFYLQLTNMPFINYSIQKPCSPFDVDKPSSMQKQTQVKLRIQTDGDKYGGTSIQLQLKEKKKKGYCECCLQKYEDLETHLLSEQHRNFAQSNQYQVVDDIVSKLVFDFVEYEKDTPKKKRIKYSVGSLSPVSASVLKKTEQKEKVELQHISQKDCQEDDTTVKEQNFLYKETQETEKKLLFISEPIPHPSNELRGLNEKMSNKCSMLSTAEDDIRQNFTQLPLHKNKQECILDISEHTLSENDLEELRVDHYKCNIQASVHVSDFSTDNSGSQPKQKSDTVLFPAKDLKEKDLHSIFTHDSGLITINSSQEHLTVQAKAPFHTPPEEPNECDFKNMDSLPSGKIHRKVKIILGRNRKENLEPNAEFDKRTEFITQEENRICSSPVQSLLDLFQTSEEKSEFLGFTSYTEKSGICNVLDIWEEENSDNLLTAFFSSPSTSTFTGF

In the case of Tannic acid, the “concentration at which ATP depletion is inhibited” value in series [1] was “higher than 0.2 μM”. In addition, the “concentration at which compound inhibits luminescence detection” value in series [2] is 10 µM. In addition, the “percent inhibition, Set 1” value in series [3] (LUM method pilot screen, 10 μM compound in 1% DMSO, Set 1 of duplicate) is recorded as 46%. For the same compound, the “percent inhibition, Set 2” value in series [3] (LUM method pilot screen, 10 μM compound in 1% DMSO, Set 2 of duplicate) came out at 52%. Besides, in series [3] (LUM method pilot screen, 10 μM compound, average of duplicate), the “averaged percent inhibition (two data sets)” value was determined as 49%. In addition, the Solubility entry in series [4] is listed as “Soluble”.
Take `O=c1cc(-c2cc(O)c(O)c(O)c2)oc2cc(O)cc(O)c12` [Hieracin]: in series [3], the “ADP production IC50” value is “N.E”. Further, the Solubility entry in series [4] is recorded as “Soluble”.
As to `O=C1C=C2CC3(O)COc4c(ccc(O)c4O)C3=C2C=C1O` (stereo not drawn) [Hematein], the Solubility result in series [4] is given as “Soluble”.
In the case of `N=C1C=CC(=C(c2ccc(N)cc2)c2ccc(N)cc2)C=C1` [Pararosaniline pamoate, reference compound], in series [4], the Solubility result is on record as “Soluble”.
Still for that read-out and setting: next, `O=c1c(O)c(-c2cc(O)c(O)c(O)c2)oc2cc(O)cc(O)c12` [Myricetin]: “Soluble”; `O=C(O[C@@H]1Cc2c(O)cc(O)cc2O[C@@H]1c1cc(O)c(=O)c2c(O)c(O)cc([C@H]3Oc4cc(O)cc(O)c4C[C@H]3O)c2c1)c1cc(O)c(O)c(O)c1` [Theaflavin monogallates]: “Soluble”.
Regarding `O=c1c(O)c(-c2ccc(O)c(O)c2)oc2cc(O)ccc12` [Fisetin], the “ADP production IC50” value in series [3] was “N.E”. In addition, in series [4], the Solubility result is recorded as “Soluble”.
As for `O=C(O[C@@H]1Cc2c(O)cc(O)cc2O[C@@H]1c1cc(O)c(O)c(O)c1)c1cc(O)c(O)c(O)c1` [Epigallocatechin-3-monogallate], the Solubility result in series [4] is given as “Soluble”.
On to `O=C(O)/C=C/c1ccc(O)c(O)c1` [Caffeic acid], for which the Solubility result in series [4] was “Soluble”.
For the compound Pyrogallin, the “ADP production IC50” value in series [3] is “N.E”. For the same compound, in series [4], the Solubility result is on record as “Soluble”.
Regarding `CN(C)c1ccc(C(=C2C=CC(=[N+](C)C)C=C2)c2ccc(N(C)C)cc2)cc1` [Gentian violet, reference compound], the inhibition (commonly the percentage by which the read-out fell short of the control) at 10 µM in series [3] (read-out: averaged percent inhibition (two data sets)) was found to be 23%; in series [3] (read-out: percent inhibition, Set 1) it was 23%; in series [3] (read-out: percent inhibition, Set 2), 23%. Also, in series [4], the Solubility result is on record as “Soluble”.
In the case of `O=C(CCCCC(=O)Nc1c(I)cc(I)c(C(=O)O)c1I)Nc1c(I)cc(I)c(C(=O)O)c1I` [Iodipamide, reference compound], the “ADP production IC50” value in series [3] is “N.E”. Moreover, the Solubility entry in series [4] is recorded as “Soluble”.
On to `O=C(O)CN(CCN(CC(=O)O)CC(=O)O)CC(=O)O` [EDTA], for which the “inhibition of Cdc7-Dbf4 kinase activity (control selection)” value in series [5] was “inhibited the Cdc7-Dbf4 kinase activity”.
On to `O=c1c(-c2cc(O)c(O)c(O)c2)coc2cc(O)c(O)c(O)c12` [Irigenol], for which, in series [4], the Solubility entry was “Soluble”.
The same measure, in the same setting: next, `CC(=O)Oc1cc(-c2coc3cc(OC(C)=O)c(OC(C)=O)c(OC(C)=O)c3c2=O)cc(OC(C)=O)c1OC(C)=O` [Iriginol hexaaceatate]: “Soluble”.
Regarding `CCOC(=O)[C@H](CCc1ccccc1)N[C@@H](C)C(=O)N1CCC[C@H]1C(=O)O` [Enalapril maleate, reference compound], the “ADP production IC50” value in series [3] is “N.E. ^1”. In series [4], the Solubility result is reported as “Soluble”.
On the same counts, the results for `O=c1c(O)cccc2cc(O)c(O)c(O)c12` [Purpurogallin] are “N.E. ^1” and “Soluble”.
Regarding `O=c1c(O)c(-c2ccc(O)c(O)c2)oc2cc(O)cc(O)c12` [Quercetin], the Solubility entry in series [4] was “Soluble”.
Still for that read-out and setting: next, `O=c1oc2c(O)c(O)cc3c(=O)oc4c(O)c(O)cc1c4c23` [Ellagic acid]: “Soluble”.
